Values belong to the compound of their own block, whether it stands above or below them.
Columns and labels:
[1] = HCA Crystallization, freeze/thaw temperature cycling; format: physicochemical; details: Table 7; hydrotrope at stated level in 0.5% 4-HCA composition, formula pH 3.8
Description: This method provides a way to determine HCA solubility in a composition by observing HCA crystals in situ. The method involves cycling the temperature of a test sample between freezing and thawing to imitate environmental conditions experienced by a skin care composition at an accelerated rate. This type of accelerated aging is commonly used in cosmetic product stability testing. HCA crystals can be detected using conventional means such as visual observation and microscopy.
A bulk sample of at least 10 g (e.g., 20 g-60 g) of the composition to be tested is placed in a suitable container that enables visual observation of the test sample (e.g., transparent plastic or glass jar). The test sample is subjected to 1 month of freeze/thaw temperature cycling to simulate environmental conditions that a skin care product may experience during shipping and storage. This is sometimes referred to as accelerated aging. The temperature cycling involves a 1-week freeze cycle at −7° C., followed by a 1-week thaw cycle at 25° C., and then repeating this freeze/cycle for a total temperature cycling time of 1 month.
Upon completion of the accelerated aging process (i.e., 1 month of temperature cycling), transparent test samples are visually inspected in-situ in the transparent container to determine if HCA crystallization/precipitation occurred. For opaque and translucent samples, the entire test sample is removed from the container and transferred to a suitable transparent substrate (e.g., plastic film or glass plate) and formed into a thin film of no more than 1 mm thickness. The sample is covered with a second transparent substrate to inhibit the loss of volatile ingredients during inspection. A light source (e.g., LED lamp or the like) is used to backlight the sample to aid in visual inspection. HCA crystals will generally appear as a precipitate in the composition visible to the naked eye when observed by someone with 20/20 vision from 45 cm away. Any precipitate identified during visual observation may be further evaluated using a microscope capable of providing fluorescent birefringence observation with cross-polarized light to identify anisotropic crystals. Any anisotropic crystal that has a longest dimension of greater than 0.1 mm is identified as an HCA crystal and the total number of HCA crystals is recorded. A test sample that contains no more than 1 HCA crystal is considered to be “free of HCA crystals” and is recorded as a “pass.” A test sample that contains more than 1 HCA crystal, is recorded as a “fail.”
While it is desirable to formulate HCA containing compositions at lower pH to reduce 4-VP production and yellowing, the solubility of the HCA at low pH may not be sufficient for it to be added at levels needed for an effective skin care active.
The test compositions shown in Table 8 were subjected to 2 freeze/thaw cycles at −7C/25C for 1 week/1 week, totaling one month of temperature cycling.
The test compositions are shown below in Table 9. The test compositions were subjected to 2 freeze/thaw cycles at −7C/25C and 1 week/1 week, followed by a 90-day rest period at 25° C. After completion of the incubation period, the compositions were examined for the presence of HCA crystals, as described above.

[2] = Table 7, hydrotropes; cited from earlier work
[3] = Color method: change in yellowness (Δb*) after accelerated aging; format: physicochemical
Description: This method can be used to determine the change in color of a product, material, or target portion of skin. A spectrophotometer (e.g., Spectrophotometer CM-3600A, Konica Minolta, Japan, or equivalent) is used to measure spectrometric data for CIE (International Commission on Illumination) specified illuminating and viewing conditions, and compute the associated tristimulus values, XYZ, based on CIE observer and a CIE illuminant standards. The ASTM standard for obtaining spectrometric data for Object-Color Evaluation is ASTM E1164-12(2017)el with the values and procedures for computing CIE tristimulus values from spectrometric data outlined in ASTM […]. The CIELAB color scale, also referred to as L*a*b*, are calculated from the tristimulus values as defined in ASTM […]. The L* denotes the sample's perceptual lightness. […] Portion samples are evaluated using a 10 mm path length in a plastic cell (e.g., CM-A131, Konica Minolta, Japan or equivalent), reflectance measurement, a 25.4 mm aperture opening at the specimen surface, and specular component excluded conditions with a standard white background. […] Synergy factor is calculated by dividing the observed value by the expected value. […]

SMILES: O=C(O)c1cccc(O)c1O [2,3-Dihydroxybenzoic acid]
Crystallization [1]: Pass (A test sample that contains no more than 1 HCA crystal is considered to be “free of HCA crystals” and is recorded as a “pass.”) | pKA [2]: 2.56

SMILES: O=C(O)c1ccc(O)cc1O [2,4-Dihydroxybenzoic Acid]
Crystallization [1]: Pass (A test sample that contains no more than 1 HCA crystal is considered to be “free of HCA crystals” and is recorded as a “pass.”)

SMILES: O=C(O)c1ccc(O)c(O)c1 [3,4-Dihydroxybenzoic Acid, reference compound]
Crystallization [1]: Fail (A test sample that contains more than 1 HCA crystal, is recorded as a “fail.”) | pKA [2]: 4.16

SMILES: COc1cccc(C(=O)O)c1O [3-Methoxysalicylic acid]
Crystallization [1]: Pass (A test sample that contains no more than 1 HCA crystal is considered to be “free of HCA crystals” and is recorded as a “pass.”) | pKA [2]: 2.55

SMILES: O=C([O-])C=Cc1ccccc1.[Na+] [Sodium Cinnamate, reference compound]
Crystallization [1]: Fail (A test sample that contains more than 1 HCA crystal, is recorded as a “fail.”)

SMILES: O=C([O-])c1ccccc1O.[Na+] [Sodium salicylate]
Crystallization [1]: Pass (A test sample that contains no more than 1 HCA crystal is considered to be “free of HCA crystals” and is recorded as a “pass.”)

enhancement of effect of the oxygen quenching reducing agent at low pH vs. neutral pH ([3]; 3M40C): 240% | enhancement of effect of the oxygen quenching reducing agent at low pH vs. neutral pH ([3]; 3W50C (printed 3WSOC)): 20%
SMILES: O=S([O-])S(=O)(=O)[O-].[Na+].[Na+] [sodium metabisulfite]

Source: patent US12280132B2, “Skin care composition” (The Procter & Gamble Company, priority 2021, dated 2025)
